From PubChem BioAssay (NCI)
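Protocol summary: plate cells (96-well), add compound at 5 concentrations, incubate 48 h, interpolate endpoints linearly. TGI denotes the concentration required for complete inhibition of growth.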

Key:
Experiment in all cases: NCI anticancer screen, dose series, 48 h
NCI/ADR-RES ovarian = system: NCI/ADR-RES ovarian
OVCAR-5 ovarian = system: OVCAR-5 ovarian
NCI-H23 lung = system: NCI-H23 lung
HCT-15 colon = system: HCT-15 colon
TK-10 renal = system: TK-10 renal
HCT-116 colon = system: HCT-116 colon
SR leukemia = system: SR leukemia
CAKI-1 renal = system: CAKI-1 renal
MCF7 breast = system: MCF7 breast
T-47D breast = system: T-47D breast
HS 578T breast = system: HS 578T breast
SN12C renal = system: SN12C renal
MALME-3M melanoma = system: MALME-3M melanoma
K-562 leukemia = system: K-562 leukemia
SF-268 CNS = system: SF-268 CNS
786-0 renal = system: 786-0 renal
DU-145 prostate = system: DU-145 prostate
HOP-92 NSCLC = system: HOP-92 NSCLC
HOP-62 NSCLC = system: HOP-62 NSCLC
LOX IMVI melanoma = system: LOX IMVI melanoma
UACC-62 melanoma = system: UACC-62 melanoma
SNB-75 CNS = system: SNB-75 CNS
NCI-H460 lung = system: NCI-H460 lung
BT-549 breast = system: BT-549 breast
UO-31 renal = system: UO-31 renal
M14 melanoma = system: M14 melanoma
IGROV1 ovarian = system: IGROV1 ovarian
MDA-MB-231 breast = system: MDA-MB-231 breast
SK-OV-3 ovarian = system: SK-OV-3 ovarian
NCI-H226 lung = system: NCI-H226 lung
COLO 205 colon = system: COLO 205 colon
OVCAR-8 ovarian = system: OVCAR-8 ovarian
KM12 colon = system: KM12 colon
UACC-257 melanoma = system: UACC-257 melanoma
SW-620 colon = system: SW-620 colon
MOLT-4 leukemia = system: MOLT-4 leukemia
A549 NSCLC = system: A549 NSCLC
EKVX NSCLC = system: EKVX NSCLC
SF-295 CNS = system: SF-295 CNS
SK-MEL-2 melanoma = system: SK-MEL-2 melanoma
A498 renal = system: A498 renal
MDA-MB-435 = system: MDA-MB-435
SK-MEL-28 melanoma = system: SK-MEL-28 melanoma
HCC-2998 colon = system: HCC-2998 colon
OVCAR-4 ovarian = system: OVCAR-4 ovarian
PC-3 prostate = system: PC-3 prostate
SK-MEL-5 melanoma = system: SK-MEL-5 melanoma
HL-60(TB) leukemia = system: HL-60(TB) leukemia
OVCAR-3 ovarian = system: OVCAR-3 ovarian
SNB-19 CNS = system: SNB-19 CNS
MDA-N = system: MDA-N
CCRF-CEM leukemia = system: CCRF-CEM leukemia
NCI-H522 lung = system: NCI-H522 lung
RPMI-8226 leukemia = system: RPMI-8226 leukemia
ACHN renal = system: ACHN renal
SF-539 CNS = system: SF-539 CNS
HT29 colon = system: HT29 colon
RXF 393 renal = system: RXF 393 renal
U251 CNS = system: U251 CNS

Structure (SMILES): C/C=C1/CN2CCC34C5=CC(=O)C(c6cc7c(cc6OC)N(C)C6=C(C(=O)OC)CC8(CC)CCCN9CCC67C98)=CC5=NC23CCC1C4C(=O)OC (centres undefined)
- TGI (NCI/ADR-RES ovarian): 54.3 µM
- TGI (OVCAR-5 ovarian): 16.8 µM
- TGI (NCI-H23 lung): 28.2 µM
- TGI (HCT-15 colon): 28.3 µM
- TGI (TK-10 renal): 30.9 µM
- TGI (HCT-116 colon): 23.1 µM
- TGI (SR leukemia): 6.63 µM
- TGI (CAKI-1 renal): 21.9 µM
- TGI (MCF7 breast): 22.8 µM
- TGI (T-47D breast): 29 µM
- TGI (HS 578T breast): 25.6 µM
- TGI (SN12C renal): 27.7 µM
- TGI (MALME-3M melanoma): 28.6 µM
- TGI (K-562 leukemia): 15.9 µM
- TGI (SF-268 CNS): 33.1 µM
- TGI (786-0 renal): 24.9 µM
- TGI (DU-145 prostate): 37.2 µM
- TGI (HOP-92 NSCLC): 20.8 µM
- TGI (HOP-62 NSCLC): 31.5 µM
- TGI (LOX IMVI melanoma): 31 µM
- TGI (UACC-62 melanoma): 31.1 µM
- TGI (SNB-75 CNS): 21.6 µM
- TGI (NCI-H460 lung): 30.1 µM
- TGI (BT-549 breast): 29.7 µM
- TGI (UO-31 renal): 24.6 µM
- TGI (M14 melanoma): 24.8 µM
- TGI (IGROV1 ovarian): 31.9 µM
- TGI (MDA-MB-231 breast): 23.5 µM
- TGI (SK-OV-3 ovarian): 30.9 µM
- TGI (NCI-H226 lung): 39 µM
- TGI (COLO 205 colon): 22.9 µM
- TGI (OVCAR-8 ovarian): 30.2 µM
- TGI (KM12 colon): 30.3 µM
- TGI (UACC-257 melanoma): 27.1 µM
- TGI (SW-620 colon): 21.8 µM
- TGI (MOLT-4 leukemia): 6.94 µM
- TGI (A549 NSCLC): 30.3 µM
- TGI (EKVX NSCLC): 28.1 µM
- TGI (SF-295 CNS): 31.6 µM
- TGI (SK-MEL-2 melanoma): 30.6 µM
- TGI (A498 renal): 30.2 µM
- TGI (MDA-MB-435): 26 µM
- TGI (SK-MEL-28 melanoma): 31 µM
- TGI (HCC-2998 colon): 29.5 µM
- TGI (OVCAR-4 ovarian): 27.1 µM
- TGI (PC-3 prostate): 26 µM
- TGI (SK-MEL-5 melanoma): 28.5 µM
- TGI (HL-60(TB) leukemia): 4.22 µM
- TGI (OVCAR-3 ovarian): 27.4 µM
- TGI (SNB-19 CNS): 30.3 µM
- TGI (MDA-N): 27 µM
- TGI (CCRF-CEM leukemia): 5.99 µM
- TGI (NCI-H522 lung): 23.7 µM
- TGI (RPMI-8226 leukemia): 16.6 µM
- TGI (ACHN renal): 29.1 µM
- TGI (SF-539 CNS): 28 µM
- TGI (HT29 colon): 28 µM
- TGI (RXF 393 renal): 23.3 µM
- TGI (U251 CNS): 28.6 µM
